# According to US20080032918A1, “Mast cell-derived renin” (Cornell Research Foundation, Inc., priority 2003, published 2008):
# pIC50: −log10 of the molar value. “Also recorded” adds a separate entry of the source.
# Assays:
# [1] = target: T1, mast-cell-derived renin (Homo sapiens, UniProt P00797); experiment: renin activity (ANG I formed, RIA) of HMC-1 cell releasate incubated with human angiotensinogen; assay type: biochemical; conditions: BILA2157 100 nM
# T1 construct: endogenous in cells; host or cells: HMC-1 human mastocytoma cell line, degranulated with compound 48/80
# T1 sequence (P00797 67-406): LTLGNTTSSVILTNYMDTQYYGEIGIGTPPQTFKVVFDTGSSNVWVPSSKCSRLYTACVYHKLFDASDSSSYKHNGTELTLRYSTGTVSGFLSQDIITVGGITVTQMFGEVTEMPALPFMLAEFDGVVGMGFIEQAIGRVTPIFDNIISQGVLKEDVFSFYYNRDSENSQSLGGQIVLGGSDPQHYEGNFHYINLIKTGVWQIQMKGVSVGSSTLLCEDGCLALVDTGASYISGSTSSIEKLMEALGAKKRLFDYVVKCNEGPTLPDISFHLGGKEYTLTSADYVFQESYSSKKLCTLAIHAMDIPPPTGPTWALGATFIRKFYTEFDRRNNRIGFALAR
# Description: Renin activity: Pooled confluent flasks of HMC-1 cells, or individual wells of HMC-1 cells, were pelleted and resuspended in HEPES buffer (pH 5.7, 1 mM EDTA) containing the mast-cell degranulating agent compound 48/80 (100 μg/ml or 20 μg/ml; Sigma). After 30 min, cells were spun down and the renin-containing supernatant was incubated with increasing concentrations of human angiotensinogen (Sigma). Renin activity (ANG I formed) was then determined using a GammaCoat Plasma Renin Activity 1251 Radioimmunoassay kit (DiaSorin, Mass.). The selective renin inhibitor BILA2157 was from Boehringer Ingelheim.
# The cell releasate was incubated with increasing concentrations of angiotensinogen and then assayed for ANG I formed (i.e. renin activity) by RIA. A concentration-response curve for ANG I formation as a function of angiotensinogen concentration was generated on the HMC-1 releasate. The amount of ANG I formed increased with angiotensinogen concentration. […]
# FIG. 4F illustrates that mast-cell-derived renin can be synthesized in mast cells. Releasates were analyzed from the same population of HMC-1 exposed to compound 48/80 (20 μg/ml) 48 hours apart, and analyzed for BILA2157-sensitive renin activity.
# [2] = system: cardiac sympathetic nerve endings; experiment: norepinephrine release from isolated cardiac sympathetic nerve endings incubated with angiotensinogen; assay type: cell-based, guinea pig; conditions: nerve endings incubated with BILA2157 10 nM, enalaprilat 30 nM or EXP 3174 10 nM
# Description: Preparation ofguinea-pig sympathetic nerve endings: Cardiac sympathetic nerve endings were isolated from guinea-pig hearts as previously described (Seyedi et al., J Pharmacol Exp Ther 290: 656-663, 1999; Seyedi et al., Circ. Res. 81: 774-784, 1997). Spontaneously beating hearts were isolated as previously described by the inventors (Hatta et al., J. Pharmacol. Exp. Ther. 288: 919-927, 1999; Park et al., Circ. Res. 71: 992-1001, 1992). Briefly, male Hartley guinea pigs were anesthetized with CO2 vapor and then exsanguinated. Hearts were perfused through the aorta for 15 min at constant pressure with Ringer's solution at 37° C. (Park et al., Circ. Res. 71: 992-1001, 1992) to exclude blood from the coronary circulation. Hearts were minced in 0.32 M sucrose containing 1 mM EGTA. The minced tissue was then digested with 75 mg collagenase per 10 ml HBS per gm for 1 hr at 37° C. After low speed centrifugation the resulting pellet were suspended in 10 volumes of 0.32 M sucrose and homogenized with a Teflon/glass homogenizer. The homogenate was centrifuged at 650g for 10 min, the pellet was re-homogenized and the homogenate was centrifuged again. The pellet containing cellular debris was discarded, the supernatants from the last two spins were combined, the pooled supernatant was equally subdivided into 4 to 8 tubes and re-centrifuged for 20 min at 20,000g at 4° C. This pellet contains cardiac sympathetic nerve endings. The pellet was resuspended either in HEPES-buffered saline (HBS; 500 μl, normoxic conditions) or in glucose-free HBS, which contained the reducing agent sodium dithionite (500 μl, ischemic conditions), and incubated in the absence or presence of angiotensinogen (1 hr) or other agents for 20 min at 37° C. prior to ischemia (see below). Each suspension was used only once as an independent sample.
# Norepinephrine assay: Coronary effluent and synaptosome supernatant will be assayed for NE by HPLC with electrochemical detection (ESA). […]
# [3] = system: cardiac mast cells; experiment: renin in coronary effluent of normoxic Langendorff-perfused hearts challenged with 48/80; parameters: species or system guinea pig; conditions: lodoxamide 10 μM or BILA 2157 100 nM prior to 48/80
# Description: Renin was measured in the coronary effluent of normoxic Langendorff-perfused guinea-pig hearts, ex vivo. […] When hearts were perfused with the mast-cell stabilizer lodoxamide (FIG. 9B) or the renin inhibitor BILA2157 prior to 48/80 challenge (FIGS. 9A and B), renin overflow was abolished.
# [4] = system: isolated normoxic guinea pig hearts; experiment: chronotropic response and norepinephrine overflow in normoxic isolated hearts challenged with 48/80; conditions: BILA 2157 100 nM, lodoxamide 30 μM
# Description: These findings indicate that cardiac mast cells are capable of releasing active renin, which then leads to local formation of ANG II causing norepinephrine exocytosis.
# [5] = system: guinea-pig hearts; experiment: ischemia-reperfusion in guinea pig hearts ex vivo (Langendorff); conditions: 20-min global ischemia, 45-min reperfusion, lodoxamide 10 μM; for ventricular fibrillation during reperfusion: BILA2157 100 nM; for renin overflow into coronary effluent on reperfusion: BILA 2157 100 nM
# Description: Ischemia-reperfusion in guinea pig hearts ex vivo: Guinea-pig hearts will be perfused for 30 min prior to ischemia. Inamura et al., Circ. Res. 78: 475-481 (1996). Normothermic 20-min global ischemia will be induced by complete cessation of coronary perfusion, followed by 45-min reperfusion. Coronary effluent will be assayed for renin activity and NE.
# Guinea-pig hearts were perfused ex vivo at constant pressure in a Langendorff apparatus and subjected to 20-min. stop-flow global ischemia, followed by 45-min. reperfusion (Hatta, E., R. Maruyama, S. J. Marshall, M. Imamura, and R. Levi. Bradykinin promotes ischemic norepinephrine release in guinea pig and human hearts. J. Pharmacol. Exp. Ther. 288: 919-927 (1999)). Surface ECG and coronary flow were continuously monitored; the coronary effluent was assayed for renin activity (i.e., ANG I generated as described herein). There was no detectable renin in the coronary effluent prior to ischemia. With reperfusion, there was significant renin overflow into the coronary effluent accompanied by ventricular fibrillation (VF) (FIG. 12).
# Traces in the left panels were recorded at the end of the equilibration period prior to ischemia, showing normal sinus rhythm.
# [6] = target: T2, renin (Homo sapiens, UniProt P00797); conditions: specific renin inhibitor; cited from earlier work
# T2 sequence (P00797 67-406): T1 sequence (P00797 67-406)
structure (smiles),measurement,setting,value
CC(C)C[C@H](O)[C@H](O)[C@H](CC1CCCCC1)NC(=O)[C@@H](CC(=O)N(CC(=O)N(C)CCc1ccccn1)CC1CCCCC1)Cc1csc(N)n1 [BILA2157],share of ANG I activity due to BILA2157-sensitive renin,"[1]; 240 nM angiotensinogen, initially and 48 hours after degranulation with 48/80",about 70%
same,share of total ANG I formed that originates from renin (BILA2157-sensitive),[1]; increasing angiotensinogen concentrations,~70%
same,effect on 48/80 potentiation of norepinephrine release,[2],abolished
same,renin overflow into coronary effluent after 48/80 challenge,[3],abolished
same,renin overflow into coronary effluent after 48/80 challenge,[3]; listed as BILA 2157,markedly diminished
same,chronotropic response to 48/80,[4],markedly abbreviated
same,chronotropic response to 48/80,[4]; listed as BILA 2157,diminishes the chronotropic response
same,ventricular fibrillation during reperfusion,[5],no ventricular fibrillation; also recorded: ventricular fibrillation did not occur
same,ventricular fibrillation during reperfusion,[5]; listed as BILA 2157,prevent ventricular fibrillation; also recorded: essentially no ventricular fibrillation
same,renin overflow into coronary effluent on reperfusion,[5],abrogated
same,renin overflow into coronary effluent on reperfusion,[5]; listed as BILA 2157,prevented renin release
same,pIC50,[6],9.00
